Active and inactive are the calls of the source. The calls are words filed in the database; no cut-off is given here.
Key:
U-87 MG [1] = assay: Antiproliferative activity against human U-87 MG cells harboring wildtype IDH1 assessed as inhibition of cell growth incubated for 24 hrs by CCK8 assay; format: functional, cell-based, U-87MG ATCC
U-87 MG [2] = assay: Antiproliferative activity against human U-87 MG cells harboring wildtype IDH1 assessed as inhibition of cell growth incubated for 48 hrs by CCK8 assay; format: functional, cell-based, U-87MG ATCC
U-87 MG [3] = assay: Antiproliferative activity against human U-87 MG cells harboring wildtype IDH1 assessed as inhibition of cell growth incubated for 72 hrs by CCK8 assay; format: functional, cell-based, U-87MG ATCC
U-87 MG [4] = format: functional, cell-based, U-87MG ATCC; conditions: Homo sapiens, 24 h
U-87 MG [5] = format: functional, cell-based, U-87MG ATCC; conditions: Homo sapiens, 48 h
U-87 MG [6] = format: functional, cell-based, U-87MG ATCC; conditions: Homo sapiens, 72 h
U-87 MG [7] = assay: Synergistic antiproliferative activity against human U-87 MG cells harboring wildtype IDH1 assessed as inhibition of cell growth incubated for 48 hrs in presence of AG-120 by CCK8 assay; format: functional, cell-based, U-87MG ATCC
U-87 MG [8] = assay: Synergistic antiproliferative activity against human U-87 MG cells harboring wildtype IDH1 assessed as inhibition of cell growth incubated for 48 hrs in presence of IDH305 by CCK8 assay; format: functional, cell-based, U-87MG ATCC
U-87 MG [9] = format: functional, cell-based, U-87MG ATCC; conditions: Homo sapiens, 48 h; remark: listed apart in the source
U-87 MG [10] = format: functional, cell-based, U-87MG ATCC; conditions: Homo sapiens, 48 h; remark: listed apart in the source
U-87MG ATCC [11] = assay: Effect on intracellular NADP+ level in human U-87 MG cells harboring wildtype IDH1; format: functional, cell-based
U-87MG ATCC [12] = format: functional, cell-based; conditions: Homo sapiens, dose 0.5 µM, time 48.0 hrs
U-87 MG [13] = format: functional, organism-based; conditions: Homo sapiens; U-87MG ATCC; dose 30.0 mg/kg, route ip, time 35.0 day
U-87 MG [14] = assay: cells; conditions: Homo sapiens, 48 h, read-out: Activity
U-87 MG [15] = assay: cells; conditions: Homo sapiens, 48 h, read-out: Activity; remark: listed apart in the source

IC50 (U-87 MG [1]): 5460 nM
IC50 (U-87 MG [2]): 2550 nM
IC50 (U-87 MG [3]): 1630 nM
IC50 (U-87 MG [4]): 1040 nM
IC50 (U-87 MG [5]): 970 nM
IC50 (U-87 MG [6]): 410 nM
IC50 (U-87 MG [7]): 2510 nM
IC50 (U-87 MG [8]): 1690 nM
IC50 (U-87 MG [9]): 560 nM
IC50 (U-87 MG [10]): 450 nM
SMILES: O=C(/C=C/c1cccnc1)NCCCCC1CCN(C(=O)c2ccccc2)CC1 [DAPORINAD]
Activity (U-87MG ATCC [11]): inactive
Activity (U-87MG ATCC [12]): inactive
Activity (U-87 MG [13]): Active
viability at 1 µM (U-87 MG [14]): 40.8%
viability at 1 µM (U-87 MG [15]): 27.8%

Source: ChEMBL document CHEMBL5506022, “Discovery of Novel Dual Inhibitors Targeting Mutant IDH1 and NAMPT for the Treatment of Glioma with IDH1Mutation” (J Med Chem, 2024)
